The values that follow come from patent US11142515B2, “Pyrazolyl-ureas as kinase inhibitors” (RESPIVERT LIMITED, priority 2014, dated 2021).

By IC50 is commonly meant the concentration at which inhibition is half-maximal.

In data set [1] the target is T1, p38 MAPKα isoform (MAPK14) (Homo sapiens, UniProt Q16539).
T1 construct: purchased Life Technologies
The experiment in a line: p38 MAPKα enzyme inhibition (Z-LYTE FRET). The conditions noted are these: Table 2A; read-out: IC50 Values for Enzyme Inhibition p38 MAPKα. The class given is biochemical. The method, boiled down: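 Recombinant human MAPK14 (40 ng/mL stock) was preincubated 2 h at RT with compound (stock dilutions 0.0012-40 μg/mL). The Z-LYTE FRET read-out used a MAPKAP-K2-derived peptide, and protease development for 1 h cleaved only non-phosphorylated peptide. Phosphorylation was calculated from the coumarin/fluorescein emission ratio.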

The target in a further data set is T2, c-Src (Homo sapiens, UniProt P12931).
T2 construct: purchased Life Technologies
Kind of data set: c-Src enzyme inhibition (Z-LYTE FRET). The class given is biochemical. The note with it: Table 2A. The method, boiled down: (§1)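 Enzyme (1000, 1400 or 2000 ng/mL stocks for c-Src, Hck, Syk respectively) preincubated 2 h at RT with compound (0.0012–40 μg/mL series), then FRET peptide plus ATP (800 μM c-Src; 60 μM Hck, Syk stocks) for 1 h. Protease development 1 h; phosphorylation from coumarin/fluorescein emission ratio.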

A further data set deals with T3, Syk (Homo sapiens, UniProt P43405).
T3 construct: purchased Life Technologies
Kind of data set: Syk enzyme inhibition (Z-LYTE FRET). The class given is biochemical. The conditions noted are these: Table 2A. The method, boiled down:
as §1

In another data set the target is T4, GSK 3α enzyme isoform (Homo sapiens, UniProt P49840).
T4 construct: purchased Life Technologies
The experiment in a line: GSK 3α enzyme inhibition (Z-LYTE FRET). The class given is biochemical. The note with it: Table 2A; read-out: IC50 Values for Enzyme Inhibition GSK3α. The method, boiled down:
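Z-LYTE FRET kinase assay: GSK3α protein (500 ng/mL stock) preincubated with compound (0.0012–40 μg/mL stocks) for 2 h at RT. FRET peptide (8 μM stock) and ATP (40 μM stock) added for 1 h at RT, then protease development for 1 h. Phosphorylation taken from the coumarin/fluorescein emission ratio.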

The subject of data set [2] is IL-8 release in d-U937 cells. The experiment in a line: LPS-induced IL-8 release in d-U937 cells. The class given is cell-based. The note with it: Homo sapiens, dU937, LPS 0.1 μg/mL 4 h. Put shortly:
(§2)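 U937 human monocytic cells were differentiated to macrophage-like cells with PMA (100-200 ng/mL) for 48 to 72 h, pre-treated with compound for 2 h, then challenged with E. coli O111:B4 LPS (0.1 μg/mL) for 4 h. TNFα and IL-8 in supernatants were measured by sandwich ELISA; REC50 came from concentration-response curves.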

Data set [3] relates to TNFα release in d-U937 cells. Kind of data set: LPS-induced TNFα release in d-U937 cells. Note: relative to 10 µg/mL BIRB-796. The note with it: Homo sapiens, dU937; read-out: LPS Induced Release TNFα REC50 (dU937). The class given is cell-based. Put shortly: as §2
A further data set deals with d-U937 cells. The experiment in a line: Cell viability: MTT assay in differentiated U937 cells. The class given is cell-based, human. The conditions noted are these: 10 μg/mL. Put shortly:
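Differentiated U937 cells exposed to compound at a final 10 μg/mL, either 4 h in 5% FCS RPMI1640 or 24 h in 10% FCS RPMI1640. MTT added for 1 h, formazan dissolved in DMSO, absorbance read at 550 nm; % viability loss relative to 0.5% DMSO vehicle, with increases shown as negative values.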

T2 sequence (P12931 whole entry): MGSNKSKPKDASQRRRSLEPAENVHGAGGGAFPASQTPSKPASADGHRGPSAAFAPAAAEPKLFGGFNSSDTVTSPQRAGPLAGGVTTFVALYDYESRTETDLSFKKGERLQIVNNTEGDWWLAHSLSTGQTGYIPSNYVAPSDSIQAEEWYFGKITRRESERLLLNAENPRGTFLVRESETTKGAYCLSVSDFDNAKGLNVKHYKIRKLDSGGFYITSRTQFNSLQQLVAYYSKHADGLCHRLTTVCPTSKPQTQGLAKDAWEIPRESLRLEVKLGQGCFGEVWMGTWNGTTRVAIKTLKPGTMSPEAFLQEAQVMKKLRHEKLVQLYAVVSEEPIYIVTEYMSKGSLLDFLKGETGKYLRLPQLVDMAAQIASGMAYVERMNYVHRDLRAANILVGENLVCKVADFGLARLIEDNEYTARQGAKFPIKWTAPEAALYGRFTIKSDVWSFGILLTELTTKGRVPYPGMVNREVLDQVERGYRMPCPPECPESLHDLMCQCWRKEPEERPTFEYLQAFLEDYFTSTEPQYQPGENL
T4 sequence (P49840 whole entry, canonical isoform): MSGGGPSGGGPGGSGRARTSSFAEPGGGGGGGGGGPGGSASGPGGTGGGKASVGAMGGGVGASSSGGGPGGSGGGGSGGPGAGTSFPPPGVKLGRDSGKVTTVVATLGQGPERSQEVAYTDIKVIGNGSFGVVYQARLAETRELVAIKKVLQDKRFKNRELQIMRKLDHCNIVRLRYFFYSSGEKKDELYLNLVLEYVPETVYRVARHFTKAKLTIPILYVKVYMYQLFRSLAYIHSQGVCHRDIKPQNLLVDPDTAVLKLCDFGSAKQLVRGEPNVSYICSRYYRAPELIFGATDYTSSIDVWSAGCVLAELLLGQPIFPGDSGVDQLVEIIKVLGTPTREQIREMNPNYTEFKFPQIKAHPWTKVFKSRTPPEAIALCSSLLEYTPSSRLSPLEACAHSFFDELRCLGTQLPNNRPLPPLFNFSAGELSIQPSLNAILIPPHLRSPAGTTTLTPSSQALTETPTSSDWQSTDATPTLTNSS
T1 sequence (Q16539 whole entry, canonical isoform): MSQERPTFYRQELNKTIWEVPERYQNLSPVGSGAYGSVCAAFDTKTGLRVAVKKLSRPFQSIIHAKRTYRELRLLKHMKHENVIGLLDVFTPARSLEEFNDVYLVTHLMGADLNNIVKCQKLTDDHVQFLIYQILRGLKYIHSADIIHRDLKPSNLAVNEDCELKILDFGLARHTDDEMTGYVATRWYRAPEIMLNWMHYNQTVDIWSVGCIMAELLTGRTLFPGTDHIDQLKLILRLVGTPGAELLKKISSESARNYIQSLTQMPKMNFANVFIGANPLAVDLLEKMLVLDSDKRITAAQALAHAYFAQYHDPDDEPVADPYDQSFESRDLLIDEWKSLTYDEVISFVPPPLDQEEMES

With `CCc1ccc(-n2nc(C(C)(C)C)cc2NC(=O)Nc2ccc(OCc3ccnc(Nc4cnccn4)c3)c3ccccc23)cc1` [Example 42], the IC50 in data set [1] was 15 nM; on c-Src it was 543 nM; against Syk, over 16300 nM; at GSK 3α enzyme isoform, 6940 nM; in data set [2], 18.3 nM. Also, in data set [3], the EC50 came out at 4.3 nM. In addition, the “MTT Assay Cell viability at time point indicated in d-U937 Cells, 4 h” value (“MTT Assay Cell viability … in d-U937 Cells, 4 h” for short) in the data set on d-U937 cells is “− (−ve and +ve indicate the value is below and above, respectively, the no significant effect threshold defined as 30% inhibition at 10 μg/mL at the time point indicated)”. For the same compound, in the data set with d-U937 cells, the “MTT Assay Cell viability at time point indicated in d-U937 Cells, 24 h” value (from here on “MTT Assay Cell viability … 24 h”) was “− (−ve and +ve indicate the value is below and above, respectively, the no significant effect threshold defined as 30% inhibition at 10 μg/mL at the time point indicated)”.
As to `COCCNC(=O)c1cnc(Nc2cc(COc3ccc(NC(=O)Nc4cc(C(C)(C)C)nn4-c4ccc(C)s4)c4ccccc34)ccn2)cn1` [Example 43], the IC50 in data set [1] is 12 nM; on c-Src, 73 nM; on Syk it was over 14200 nM; on GSK 3α enzyme isoform, 7920 nM; in data set [2], 41.4 nM. Also, the EC50 in data set [3] came out at 16.8 nM. Further, the “MTT Assay Cell viability … in d-U937 Cells, 4 h” value in the data set on d-U937 cells is “− (−ve and +ve indicate the value is below and above, respectively, the no significant effect threshold defined as 30% inhibition at 10 μg/mL at the time point indicated)”. Also, in the data set with d-U937 cells, the “MTT Assay Cell viability … 24 h” value is “− (−ve and +ve indicate the value is below and above, respectively, the no significant effect threshold defined as 30% inhibition at 10 μg/mL at the time point indicated)”.
In the case of `COCCNC(=O)c1cnc(Nc2cc(COc3ccc(NC(=O)Nc4cc(C(C)(C)C)nn4-c4csc(C)c4)c4ccccc34)ccn2)cn1` [Example 44], the IC50 in data set [1] is 11 nM; at c-Src, 233 nM; against Syk, over 14200 nM; on GSK 3α enzyme isoform, over 14200 nM; in data set [2] it was 52.2 nM. Moreover, in data set [3], the EC50 came to 88.2 nM. Moreover, in the data set on d-U937 cells, the “MTT Assay Cell viability … in d-U937 Cells, 4 h” value is “− (−ve and +ve indicate the value is below and above, respectively, the no significant effect threshold defined as 30% inhibition at 10 μg/mL at the time point indicated)”. In addition, the “MTT Assay Cell viability … 24 h” value in the data set with d-U937 cells was “+ (−ve and +ve indicate the value is below and above, respectively, the no significant effect threshold defined as 30% inhibition at 10 μg/mL at the time point indicated)”.
Turning to `CC(C)(C)c1cc(NC(=O)Nc2ccc(OCc3ccnc(Nc4cnccn4)c3)c3ccccc23)n(-c2ccc(Cl)cc2)n1` [Example 45], the half-maximal inhibitory concentration (IC50) was 120 nM in data set [1]; 7890 nM at c-Src; over 16200 nM on Syk; 1900 nM at GSK 3α enzyme isoform; 17.1 nM in data set [2]. In data set [3], the EC50 turned out to be 3.5 nM. In the data set on d-U937 cells, the “MTT Assay Cell viability … in d-U937 Cells, 4 h” value is “− (−ve and +ve indicate the value is below and above, respectively, the no significant effect threshold defined as 30% inhibition at 10 μg/mL at the time point indicated)”. Also, the “MTT Assay Cell viability … 24 h” value with d-U937 cells is “− (−ve and +ve indicate the value is below and above, respectively, the no significant effect threshold defined as 30% inhibition at 10 μg/mL at the time point indicated)”.
Consider `COc1ccc(-n2nc(C(C)(C)C)cc2NC(=O)Nc2ccc(OCc3ccnc(Nc4cnccn4)c3)c3ccccc23)cc1Cl` [Example 46], for which the IC50 turned out to be 85 nM in data set [1]; 385 nM against c-Src; 6700 nM against Syk; 7050 nM on GSK 3α enzyme isoform; 268 nM in data set [2]. Further, the EC50 in data set [3] was 0.7 nM. Besides, in the data set on d-U937 cells, the “MTT Assay Cell viability … in d-U937 Cells, 4 h” value was “− (−ve and +ve indicate the value is below and above, respectively, the no significant effect threshold defined as 30% inhibition at 10 μg/mL at the time point indicated)”. Further, the “MTT Assay Cell viability … 24 h” value in the data set with d-U937 cells was “− (−ve and +ve indicate the value is below and above, respectively, the no significant effect threshold defined as 30% inhibition at 10 μg/mL at the time point indicated)”.
